Laboratory results from US20220175820A1 (PIERRE FABRE DERMO-COSMETIQUE, priority 2019, published 2022).
Marks after values point to notes of the source that are not given here.

Assays:
Assay type in all cases: cell-based
TSLP = TSLP production by stimulated normal human epidermal keratinocytes (atopic dermatitis model, ELISA); settings: bafilomycin 30 nM; stimulation by Poly I:C, PamC3, IL-4 and IL-13
Experimental: (§1) The study is performed on normal human epidermal keratinocytes cultured under standard conditions (37° C., 5% CO2). The culture medium is standard (keratinocyte-SFM supplemented with 0.25 ng/ml epidermal growth factor (EGF), 25 μg/ml pituitary extract and 25 μg/ml gentamycin). The test medium is the same without growth factor.
(§2) To simulate an atopic dermatitis environment, keratinocytes are preincubated for 1 hour in the medium with or without (control) the compounds to be tested, the vehicle (water) or the positive control, bafilomycin (macrolide family) at 30 nM. […] After this preincubation, keratinocytes are stimulated for 24 hours by a mixture of TLR ligands (Poly I:C and PamC3) and inflammatory cytokines (IL-4 and IL-13) added to the cells. An unstimulated control condition is also done at the same time. The cells are incubated for 24 hours.
(§3) The culture supernatants are collected, centrifuged and frozen at −80° C. TSLP and IL-8 are quantified by ELISA.
(§4) Three independent experiments are conducted. Statistical analysis is determined by one-way ANOVA followed by Dunnett's post-hoc test.

IL-8 = IL-8 production by stimulated normal human epidermal keratinocytes (atopic dermatitis model, ELISA); settings: bafilomycin 30 nM; stimulation by Poly I:C, PamC3, IL-4 and IL-13
Experimental: as §1, §2, §3, §4

DEFB4A: β-defensin 2 = test: RT-qPCR gene expression in normal human keratinocytes: DEFB4A; settings: calcium chloride 1.5 mM, 48 h
Experimental: (§5) The effects of this compound were assessed via the RT-qPCR technique with the analysis of 12 target genes chosen for their importance in keratinocyte differentiation, antimicrobial defence and hydration. Calcium chloride (tested at 1.5 mM) is used as the reference compound (physiological agent inducing terminal epidermal differentiation). The cells are then collected for analysis of target expression (mRNA) by real-time PCR. Total RNAs were extracted with TriPure Isolation Reagent® according to the supplier's instructions (Roche Life Science, Meylan, France). They were assayed with the Bioanalyser 2100 (Agilent Technologies, Les Ulis, France). The mRNAs were reverse transcribed into complementary DNA with oligo(dT) and Transcriptor Reverse Transcriptase. PCR was performed in the LightCycler® System according to the supplier's instructions (Roche). The PCR mix used is SYBR green I. The results were analyzed with Microsoft Excel®. The relative quantity is calculated for each gene by normalizing with two reference genes, ribosomal protein L13A (RPL13A) and TATA box binding protein (TBP).

KLK7: type 7 kallikrein = test: RT-qPCR gene expression in normal human keratinocytes: KLK7; settings: calcium chloride 1.5 mM, 48 h
Experimental: as §5

TGM1: transglutaminase 1 = test: RT-qPCR gene expression in normal human keratinocytes: TGM1; settings: calcium chloride 1.5 mM, 48 h
Experimental: as §5

CDSN : corneodesmosin = test: RT-qPCR gene expression in normal human keratinocytes: CDSN; settings: calcium chloride 1.5 mM, 48 h
Experimental: as §5

[1] = test system: FABP5: epidermal fatty acid binding protein; test: RT-qPCR gene expression in normal human keratinocytes: FABP5; settings: calcium chloride 1.5 mM, 48 h
Experimental: as §5

[2] = test system: SULT2B1: cholesterol sulfotransferase; test: RT-qPCR gene expression in normal human keratinocytes: SULT2B1; settings: calcium chloride 1.5 mM, 48 h
Experimental: as §5

CLDN4: claudin 4 = test: RT-qPCR gene expression in normal human keratinocytes: CLDN4; settings: calcium chloride 1.5 mM, 48 h
Experimental: as §5

[3] = test system: DEGS2: sphingolipid C4-hydroxylase/delta-4 desaturase; test: RT-qPCR gene expression in normal human keratinocytes: DEGS2; settings: calcium chloride 1.5 mM, 48 h
Experimental: as §5

CASP14: caspase 14 = test: RT-qPCR gene expression in normal human keratinocytes: CASP14; settings: calcium chloride 1.5 mM, 48 h
Experimental: as §5

FLG: filaggrin = test: RT-qPCR gene expression in normal human keratinocytes: FLG; settings: calcium chloride 1.5 mM, 48 h
Experimental: as §5

SMILES	TSLP production at 24 h % Inh (TSLP)	TSLP production at 24 h Mean (TSLP) [pg/mL]	Production of IL-8 at 24 h Mean (IL-8) [pg/mL]	DEFB4A Mean RQ (relative quantity) (DEFB4A: β-defensin 2)	KLK7 Mean RQ (relative quantity) (KLK7: type 7 kallikrein)	TGM1 Mean RQ (relative quantity) (TGM1: transglutaminase 1)	CDSN Mean RQ (relative quantity) (CDSN : corneodesmosin)	FABP5 Mean RQ (relative quantity) [1]	SULT2B1 Mean RQ (relative quantity) [2]	CLDN4 Mean RQ (relative quantity) (CLDN4: claudin 4)	DEGS2 Mean RQ (relative quantity) [3]	CASP14 Mean RQ (relative quantity) (CASP14: caspase 14)	FLG Mean RQ (relative quantity) (FLG: filaggrin)
CO/C1=C\C(C)=C\[C@@H](C)[C@@H](O)[C@@H](C)C/C(C)=C/C=C/[C@H](OC)[C@@H]([C@@H](C)[C@@H](O)[C@H](C)[C@@]2(O)C[C@@H](O)[C@H](C)[C@@H](C(C)C)O2)OC1=O [Bafilomycin, bafilomycin, reference compound]	70* %	81	26022	–	–	–	–	–	–	–	–	–	–
[Ca+2].[Cl-].[Cl-] [Calcium chloride]	–	–	–	118.0	11.3	9.0	1.8	6.9	14.0	2.5	3.0	1.6	4.5
